≈ marks a conversion by molar mass, not a printed value.

Assay [1] deals with Escherichia coli. As to the kind of experiment: Antibacterial activity against Escherichia coli MTCC 40 incubated for 24 hrs by serial two-fold dilution method. The assay is classed as functional. The settings on record: MTCC 40, 24 h.
Assay [2] relates to Pseudomonas aeruginosa. As to the kind of experiment: Antibacterial activity against Pseudomonas aeruginosa MTCC 2453 incubated for 24 hrs by serial two-fold dilution method. The settings on record: MTCC 2453, 24 h. The class given is functional.
Assay [3] deals with Staphylococcus aureus. As to the kind of experiment: Antibacterial activity against Staphylococcus aureus MSSA 22 at 100 ug/mL incubated for 24 hrs by filter paper disc method. The assay is classed as functional. The settings on record: MSSA 22, 24 h, read-out: DIZ.
Assay [4] has as its system Bacillus subtilis. In words: Antibacterial activity against Bacillus subtilis ATCC 6051 at 100 ug/mL incubated for 24 hrs by filter paper disc method. The assay is classed as functional. The settings on record: ATCC 6051, 24 h, read-out: DIZ.
The test system of assay [5] is Escherichia coli. In words: Antibacterial activity against Escherichia coli K-12 at 100 ug/mL incubated for 24 hrs by filter paper disc method. The assay is classed as functional. The note with it: K-12, 24 h, read-out: DIZ.
Assay [6] concerns Salmonella typhimurium. In words: Antibacterial activity against Salmonella typhimurium MTCC98 at 100 ug/mL incubated for 24 hrs by filter paper disc method. The class given is functional, Salmonella enterica subsp. enterica serovar Typhimurium. The note with it: Salmonella enterica, MTCC98, 24 h; read-out: DIZ.
The subject of assay [7] is Candida albicans. As to the kind of experiment: Antifungal activity against Candida albicans IOA-109 at 100 ug/mL incubated for 18 to 48 hrs by agar disc diffusion method. The note with it: read-out: DIZ. The assay is classed as functional.
Assay [8] concerns Candida albicans. As to the kind of experiment: Antifungal activity against Candida albicans IOA-109 at 50 ug/disc incubated for 5 to 6 days by disc diffusion method. The assay is classed as functional. The note with it: read-out: DIZ. On the technique in general: A growth-free zone around the sample is the usual read-out of agar diffusion tests.
Assay [9] deals with A549. In words: Cytotoxicity in human A549 cells by SRB assay. The assay is classed as functional. The settings on record: read-out: TC50 (the source's name). (In SRB staining, fixed cells bind dye roughly in proportion to their protein.)
The subject of assay [10] is Plasmodium falciparum. As to the kind of experiment: Antimalarial activity against Plasmodium falciparum infected in erythrocytes assessed as inhibition of increase in parasite density after 72 hrs. The assay is classed as functional, organism-based.
Assay [11] has as its system Hep 3B2. In words: Cytotoxicity in human Hep3B cells incubated for 48 hrs by MTT assay. The assay is classed as functional, cell-based.

For `CCCCCCCCCCCCCC(=O)NN1C(=O)CSC1c1ccc(F)cc1` (stereo not given), the MIC in [1] and in assay [2] was 0.35 to 0.7 µg/mL (≈ 0.828 to 1.66 µM) each time.

On to `CCCCCCCCCCCCCCCC(=O)NN1C(=O)CSC1c1ccc(Br)cc1` (stereo not given), for which the MIC in assay [1] and in assay [2] was 0.35 to 0.7 µg/mL (≈ 0.684 to 1.37 µM) throughout.

Regarding `CCCCCCCCCCCCCCCCCc1nc(-c2cccc(O)c2)n[nH]1`, the zone of inhibition at 100 µg/mL in assay [3] was in the range of 13.1 to 22.2 mm; in [4], 13.1 to 22.2 mm; in [5], 13.1 to 22.2 mm; in assay [6] it was 13.1 to 22.2 mm; in assay [7], 17.2 to 19 mm.

For the compound `CCCCCCCCCCCCCCCC(=O)NN1C(=O)CSC1c1ccc(O)cc1` (stereo not given), the MIC in assay [1] and in [2] was 0.35 to 0.7 µg/mL (≈ 0.78 to 1.56 µM) in each case.

As to `CCCCCCCCCCCCCC(=O)NN1C(=O)CSC1c1ccc(Br)cc1` (stereo not given), the minimum inhibitory concentration (MIC) in assay [1] and in assay [2] was 0.35 to 0.7 µg/mL (≈ 0.724 to 1.45 µM) in each case.

Turning to `CCCCCCCCCCCCCCCC(=O)NN1C(=O)CSC1c1ccc(C)cc1` (stereo not given), the minimal inhibitory concentration (MIC) in assay [1] and in assay [2] was 0.35 to 0.7 µg/mL (≈ 0.784 to 1.57 µM) throughout.

For `CCCCCCCC(O)CC/C=C\CCCCCC(=O)n1nnc2ccccc21` (stereo not given), the zone of inhibition at 50 µg/disc in assay [8] was 16 to 20 mm.

Consider `CCCCCCCCCCCCCC(=O)NN1C(=O)CSC1c1ccc(OC)cc1` (stereo not given), for which the MIC in [1] and in [2] was 0.35 to 0.7 µg/mL (≈ 0.805 to 1.61 µM) each time.

As for `CC/C=C\C/C=C\C/C=C\CCCCCCCc1nnc(S)o1`, the CC50 in [9] was found to be 0.149 µM.

With `C=CCCCCCCCCc1nc(-c2cccc(O)c2)n[nH]1`, the zone of inhibition at 100 µg/mL in assay [3] lay within 13.1 to 22.2 mm; in assay [4], 13.1 to 22.2 mm; in assay [5] it was 13.1 to 22.2 mm; in assay [6] it was 13.1 to 22.2 mm; in assay [7] it was 17.2 to 19 mm.

Regarding `C=CCCCCCCCCc1nc(-c2ccccc2)n[nH]1`, the zone of inhibition at 100 µg/mL was in the range of 13.1 to 22.2 mm in assay [3]; 13.1 to 22.2 mm in assay [4]; 13.1 to 22.2 mm in [5]; 13.1 to 22.2 mm in assay [6]; 17.2 to 19 mm in assay [7].

`CCCCCCCC/C=C\CCCCCCCc1nc(-c2cccc(O)c2)n[nH]1`: the zone of inhibition at 100 µg/mL in [3] is 13.1 to 22.2 mm; in assay [4], 13.1 to 22.2 mm; in [5], 13.1 to 22.2 mm; in assay [6], 13.1 to 22.2 mm; in assay [7], 17.2 to 19 mm.

For the compound `CCCCCCCCCCCCCCCC(=O)NN1C(=O)CSC1c1ccc(F)cc1` (stereo not given), the MIC in [1] and in [2] was 0.35 to 0.7 µg/mL (≈ 0.777 to 1.55 µM) in each case.

In the case of `CCCCCCCCCCCCCCCCCc1nc(-c2ccccc2)n[nH]1`, the zone of inhibition at 100 µg/mL lay within 13.1 to 22.2 mm in assay [3]; 13.1 to 22.2 mm in assay [4]; 13.1 to 22.2 mm in assay [5]; 13.1 to 22.2 mm in assay [6]; 17.2 to 19 mm in assay [7].

With `C=C[C@H]1CN2CC[C@H]1C[C@H]2[C@H](OCCCCCCCC/C=C\C/C=C\C/C=C\CC)c1ccnc2ccc(OC)cc12`, the concentration giving a half-maximal response (EC50) in assay [10] was in the range of 7 to 20 µM.

Regarding `CC/C=C\C/C=C\C/C=C\CCCCCCCc1nnc(S)n1N`, the CC50 in assay [9] is 0.264 µM.

Regarding `CCCCCCCCCCCCCC(=O)NN1C(=O)CSC1c1ccc(C)cc1` (stereo not given), the minimal inhibitory concentration (MIC) in [1] and in assay [2] was 0.35 to 0.7 µg/mL (≈ 0.836 to 1.67 µM) in each case.

With `CCCCC/C=C\CCC(O)CCCCCCCc1nc(-c2ccc(O)c(O)c2)n[nH]1` (stereo not given), the zone of inhibition at 100 µg/mL in [3] fell in the range of 13.1 to 22.2 mm; in assay [4] it was 13.1 to 22.2 mm; in assay [5], 13.1 to 22.2 mm; in [6], 13.1 to 22.2 mm; in assay [7] it was 17.2 to 19 mm.

Regarding `CCCCCCCCCCCCCCCCCc1nnc(S)n1N`, the CC50 in assay [9] stood at 0.282 µM.

Compound `C=CCCCCCCCCc1n[nH]c(=S)n1N` yielded an IC50 in [11] of 9.2 µM.

As to `C=CCCCCCCCCc1nc(-c2ccc(O)c(O)c2)n[nH]1`, the zone of inhibition at 100 µg/mL in assay [3] lay within 13.1 to 22.2 mm; in assay [4] it was 13.1 to 22.2 mm; in [5], 13.1 to 22.2 mm; in assay [6], 13.1 to 22.2 mm; in assay [7], 17.2 to 19 mm.

For the compound `C=C[C@H]1CN2CC[C@H]1C[C@H]2[C@H](O/C=C/C=C/C=C/C=C/C=C/C=C/CCCCCCCCCC)c1ccnc2ccc(OC)cc12`, the 50% effective concentration (EC50) in [10] lay within 7 to 20 µM.

`CCCCCCCCCCCCCC(=O)NN1C(=O)CSC1c1ccc([N+](=O)[O-])cc1` (stereo not given): the MIC in [1] and in assay [2] was 0.35 to 0.7 µg/mL (≈ 0.778 to 1.56 µM) in each case.

The MIC is the least concentration at which growth counts as inhibited. Read a high MIC as a need for much substance. For orientation: EC50 means the concentration giving half of the maximal effect. One may read the IC50 as the concentration that gives 50% inhibition.

(Values after ChEMBL document CHEMBL4130493, “An insight into the biological activities of heterocyclic-fatty acid hybrid molecules” (Eur J Med Chem, 2017).)
